ChEMBL document CHEMBL1155085, “Propindilactones E-J, Schiartane Nortriterpenoids from Schisandra propinqua var. propinqua” (J Nat Prod, 2008)

Experiments:
Format in all cases: functional, cell-based
HT-29 = experiment: Cytotoxicity against human HT29 cells after 72 hrs by sulforhodamine B assay; conditions: HT-29, 72 h
K562 = experiment: Cytotoxicity against human K562 cells after 72 hrs by sulforhodamine B assay; conditions: K562, 72 h
A549 = experiment: Cytotoxicity against human A549 cells after 72 hrs by sulforhodamine B assay; conditions: A549, 72 h

Measured: IC50

C[C@@H]([C@@H](O)[C@@H]1C[C@@H](C)C(=O)O1)[C@H]1[C@@H](O)[C@H](O)[C@]2(O)[C@@H]3C[C@H]4C(C)(C)O[C@@H]5CC(=O)O[C@@]54CC[C@@]3(O)CC[C@]12C [PRPINDILACETONES H]
> 100 µM: HT-29 | K562 | A549

C[C@@H]([C@@H](O)[C@@H]1C[C@@H](C)C(=O)O1)[C@H]1C[C@H](O)[C@]2(O)[C@@H]3C[C@H]4C(C)(C)O[C@@H]5CC(=O)O[C@@]54CC[C@@]3(O)CC[C@]12C [PRPINDILACETONES I]
> 100 µM: HT-29 | K562 | A549

CC(=O)O[C@@H]1C[C@]2(O)CC[C@]34OC(=O)C[C@H]3OC(C)(C)[C@@H]4C[C@H]2[C@]23O[C@H]2C[C@H]([C@@H](C)[C@H]2CC=C(C)C(=O)O2)[C@@]13C [PRPINDILACETONES J]
> 100 µM: HT-29 | K562 | A549
